In the supplement of paper PMC11451515:

Columns and labels:
Conditions in all cases: 48 h
P12-Ichikawa [1] = test: cell viability relative to DMSO control; higher = less cytotoxic
In short: (§1)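 Library compounds in DMSO were pin-dosed in an 11-point threefold series (47 μM to 0.79 nM) onto leukemia cells in 1536-well plates (5 μl). Plates held 500 cells/well of NOMO1 or SEM or 1000 cells/well of P12-Ichikawa, each adapted for at least four passages in each medium. Luminescence was read with CellTiter-Glo One after 48 h at 37°C. Viability means the per-plate percentage relative to DMSO wells, using cell-free wells as background.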

NOMO1 [2] = test: as above
In short: as §1

SEM cells [3] = test: as above
In short: as §1

P12-Ichikawa [4] = test: AUC of viability dose-response curve (% viability x log10 dose units); higher = less sensitive
In short: (§2)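 Leukemia cells adapted to each medium were seeded in 1536-well plates (500 or 1000 cells/well). They were dosed with library compounds in DMSO at 11 threefold doses, 47 μM to 0.79 nM, for 48 h at 37°C. CellTiter-Glo One luminescence was normalised per plate to DMSO and cell-free wells. Area under the curve was integrated by trapezoidal rule over log10 doses on a four-parameter log-logistic fit; curves exceeding full viability were scaled and curves failing quality control removed.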

NOMO1 [5] = test: as above
In short: as §2

SEM cells [6] = test: as above
In short: as §2

Cc1cc2c(F)c(Oc3ncnn4cc(OC[C@@H](C)O)c(C)c34)ccc2[nH]1
cell viability [%]
Conditions	NOMO1 [2]	P12-Ichikawa [1]	SEM cells [3]
HPLM + 10% dialyzed FBS, 0.000781 µM	107	115	107
HPLM + 10% dialyzed FBS, 0.00234 µM	87.6	105	108
HPLM + 10% dialyzed FBS, 0.00702 µM	103	102	101
HPLM + 10% dialyzed FBS, 0.0211 µM	103	106	102
HPLM + 10% dialyzed FBS, 0.0632 µM	97.5	111	106
HPLM + 10% dialyzed FBS, 0.19 µM	90.4	106	104
HPLM + 10% dialyzed FBS, 0.569 µM	99.2	97.2	88.7
HPLM + 10% dialyzed FBS, 1.71 µM	101	97.5	83.2
HPLM + 10% dialyzed FBS, 5.12 µM	98.4	96.9	70.5
HPLM + 10% dialyzed FBS, 15.4 µM	88.9	73.9	38.6
HPLM + 10% dialyzed FBS, 46.1 µM	69.6	52	26.6
RPMI 5 mM glucose + 10% FBS, 0.000781 µM	86.5	97.7	117
RPMI 5 mM glucose + 10% FBS, 0.00234 µM	103	107	117
RPMI 5 mM glucose + 10% FBS, 0.00702 µM	101	101	141
RPMI 5 mM glucose + 10% FBS, 0.0211 µM	105	98.1	124
RPMI 5 mM glucose + 10% FBS, 0.0632 µM	98.2	101	110
RPMI 5 mM glucose + 10% FBS, 0.19 µM	98.1	109	99.4
RPMI 5 mM glucose + 10% FBS, 0.569 µM	94.1	104	100
RPMI 5 mM glucose + 10% FBS, 1.71 µM	88.6	99	85.3
RPMI 5 mM glucose + 10% FBS, 5.12 µM	88.8	98.8	77.6
RPMI 5 mM glucose + 10% FBS, 15.4 µM	97	80.7	39.7
RPMI 5 mM glucose + 10% FBS, 46.1 µM	83.6	55.8	26.2
RPMI 5 mM glucose + 10% dialyzed FBS, 0.000781 µM	88.5	102	87.5
RPMI 5 mM glucose + 10% dialyzed FBS, 0.00234 µM	104	100	92.6
RPMI 5 mM glucose + 10% dialyzed FBS, 0.00702 µM	102	97.3	103
RPMI 5 mM glucose + 10% dialyzed FBS, 0.0211 µM	92	101	102
RPMI 5 mM glucose + 10% dialyzed FBS, 0.0632 µM	90.3	104	92.9
RPMI 5 mM glucose + 10% dialyzed FBS, 0.19 µM	100	102	89.3
RPMI 5 mM glucose + 10% dialyzed FBS, 0.569 µM	98.7	95.7	92.4
RPMI 5 mM glucose + 10% dialyzed FBS, 1.71 µM	84.9	97.8	79.3
RPMI 5 mM glucose + 10% dialyzed FBS, 5.12 µM	109	90.1	70.3
RPMI 5 mM glucose + 10% dialyzed FBS, 15.4 µM	79.8	79.3	26
RPMI 5 mM glucose + 10% dialyzed FBS, 46.1 µM	67.1	52.3	13.7

AUC of viability dose-response curve
Conditions	NOMO1 [5]	P12-Ichikawa [4]	SEM cells [6]
HPLM + 10% dialyzed FBS	459	442	394
RPMI 5 mM glucose + 10% FBS	453	454	372
RPMI 5 mM glucose + 10% dialyzed FBS	446	448	380

COc1ccc(C2CNC(=O)C2)cc1OC1CCCC1 (stereo unspecified)
cell viability [%]
Conditions	NOMO1 [2]	P12-Ichikawa [1]	SEM cells [3]
HPLM + 10% dialyzed FBS, 0.000781 µM	78.4	88.6	80.8
HPLM + 10% dialyzed FBS, 0.00234 µM	105	100	93.4
HPLM + 10% dialyzed FBS, 0.00702 µM	91.4	102	91.4
HPLM + 10% dialyzed FBS, 0.0211 µM	97.7	99	89.7
HPLM + 10% dialyzed FBS, 0.0632 µM	122	109	106
HPLM + 10% dialyzed FBS, 0.19 µM	105	105	97.7
HPLM + 10% dialyzed FBS, 0.569 µM	105	107	107
HPLM + 10% dialyzed FBS, 1.71 µM	112	108	102
HPLM + 10% dialyzed FBS, 5.12 µM	101	105	108
HPLM + 10% dialyzed FBS, 15.4 µM	99.6	99	97
HPLM + 10% dialyzed FBS, 46.1 µM	106	102	101
RPMI 5 mM glucose + 10% FBS, 0.000781 µM	85.8	89	82.9
RPMI 5 mM glucose + 10% FBS, 0.00234 µM	92.4	106	88.6
RPMI 5 mM glucose + 10% FBS, 0.00702 µM	92	91.7	89.9
RPMI 5 mM glucose + 10% FBS, 0.0211 µM	103	99	81.7
RPMI 5 mM glucose + 10% FBS, 0.0632 µM	109	101	100
RPMI 5 mM glucose + 10% FBS, 0.19 µM	95.1	96.7	95.3
RPMI 5 mM glucose + 10% FBS, 0.569 µM	92.5	105	102
RPMI 5 mM glucose + 10% FBS, 1.71 µM	100	103	110
RPMI 5 mM glucose + 10% FBS, 5.12 µM	92.4	98.4	97.3
RPMI 5 mM glucose + 10% FBS, 15.4 µM	91.8	102	107
RPMI 5 mM glucose + 10% FBS, 46.1 µM	107	93	90.2
RPMI 5 mM glucose + 10% dialyzed FBS, 0.000781 µM	92.1	84.8	85.9
RPMI 5 mM glucose + 10% dialyzed FBS, 0.00234 µM	94.5	97.6	89.7
RPMI 5 mM glucose + 10% dialyzed FBS, 0.00702 µM	93.8	89.7	101
RPMI 5 mM glucose + 10% dialyzed FBS, 0.0211 µM	95.2	103	89.8
RPMI 5 mM glucose + 10% dialyzed FBS, 0.0632 µM	102	95.6	95
RPMI 5 mM glucose + 10% dialyzed FBS, 0.19 µM	96.7	97.2	99.3
RPMI 5 mM glucose + 10% dialyzed FBS, 0.569 µM	104	92.4	94.6
RPMI 5 mM glucose + 10% dialyzed FBS, 1.71 µM	94.7	106	99.9
RPMI 5 mM glucose + 10% dialyzed FBS, 5.12 µM	104	106	101
RPMI 5 mM glucose + 10% dialyzed FBS, 15.4 µM	98.7	109	102
RPMI 5 mM glucose + 10% dialyzed FBS, 46.1 µM	94.9	99	103

AUC of viability dose-response curve
Conditions	NOMO1 [5]	P12-Ichikawa [4]	SEM cells [6]
HPLM + 10% dialyzed FBS	465	470	455
RPMI 5 mM glucose + 10% FBS	460	472	453
RPMI 5 mM glucose + 10% dialyzed FBS	465	450	448
